Laboratory results taken from patent publication US6527981B1, “Azole/amine oxide preservatives” (Lonza Inc., priority 1999, dated 2003).
≈ marks a conversion by molar mass, not a printed value. Like-named read-outs stand apart in the source and are kept apart here.

What was measured:
[1] = system: C. globosum (soft rot decay fungi); test: agar dilution plate method, wood rot fungi (MIC, IC50, percent retardation); assay type: cell-based; conditions: for MIC: Chaetomium globosum; for IC50 C. globosum / MIC C. globosum: ppm of amine oxide or didecyldimethyl ammonium chloride; for IC50 C. globosum / C. globosum IC50: Table2D curve fitting; for MIC C. globosum: Table 8
[2] = system: T. versicolor (white rot fungi); test: as above; assay type: cell-based; conditions: for MIC: Trametes versicolor
[3] = system: P. placenta (brown rot fungi); test: as above; assay type: cell-based
[4] = system: G. trabeum (brown rot fungi); test: as above; assay type: cell-based; conditions: for MIC: Gloeophyllum trabeum
[5] = 20° C., cited from earlier work
[6] = ppm of amine oxide or didecyldimethyl ammonium chloride, Table2D curve fitting
[7] = amine oxide alone, 100% growth retardation
[8] = azole alone, read-out: C. globosum MIC
[9] = azole alone, read-out: T. versicolor MIC
[10] = azole alone, Table2D curve fitting
[11] = azole alone, read-out: P. placenta MIC
[12] = azole alone, read-out: G. trabeum MIC
[13] = amine oxide alone, 100% growth retardation, read-out: MIC (ppm of amine oxides) C. globosum
[14] = amine oxide alone, 100% growth retardation, read-out: MIC (ppm of amine oxides) T. versicolor
[15] = amine oxide alone, 100% growth retardation, read-out: MIC (ppm of amine oxides) P. placenta
[16] = amine oxide alone, 100% growth retardation, read-out: MIC (ppm of amine oxides) G. trabeum
[17] = Table 8, ppm of amine oxide or didecyldimethyl ammonium chloride

CCCCCCCCCC[N+](C)(C)CCCCCCCCCC.[Cl-] [Bardac ® 2280, didecyldimethyl ammonium chloride]
MIC ([1]; read-out: MIC C. globosum): > 1000 µg/mL
IC50 C. globosum [1]: 28 ppm
MIC ([2]; Table 8, ppm of amine oxide or didecyldimethyl ammonium chloride, read-out: MIC T. versicolor): > 1000 µg/mL
IC50 T. versicolor [2, 6]: 28 ppm
MIC ([3]; Table 8, ppm of amine oxide or didecyldimethyl ammonium chloride, read-out: MIC P. placenta): 1000 µg/mL
IC50 P. placenta [3, 6]: <5 ppm
MIC ([4]; Table 8, ppm of amine oxide or didecyldimethyl ammonium chloride, read-out: MIC G. trabeum): > 1000 µg/mL
IC50 G. trabeum [4, 6]: 8 ppm

CCCCCCCCCCCCCCCCCCCCCC[N+](C)(C)[O-] [Behenyl DMAO]
MIC (ppm of amine oxides) C. globosum [1, 7]: >1000 ppm
Qa, concentration of amine oxide alone required to yield 100% retardation, T. versicolor ([2]; amine oxide alone): 1000 ppm
MIC (ppm of amine oxides) T. versicolor [2, 7]: >1000 ppm
Qa, concentration of amine oxide alone required to yield 100% retardation, P. placenta ([3]; amine oxide alone): 1000 ppm
MIC (ppm of amine oxides) P. placenta [3, 7]: >1000 ppm
Qa, concentration of amine oxide alone required to yield 100% retardation, G. trabeum ([4]; amine oxide alone): 1000 ppm
MIC (ppm of amine oxides) G. trabeum [4, 7]: >1000 ppm

CC(C1CC1)C(O)(Cn1cncn1)c1ccc(Cl)cc1 (stereo not shown) [Cyproconazole, cyproconazole]
MIC [1, 8]: 25 µg/mL (≈ 85.7 µM)
C. globosum IC50 ([1]; azole alone): 2.3 ppm
MIC [2, 9]: 2.5 µg/mL (≈ 8.57 µM)
T. versicolor IC50 [2, 10]: 0.2 ppm
P. placenta IC50 [3, 10]: 0.7 ppm
MIC [3, 11]: 2.5 µg/mL (≈ 8.57 µM)
MIC [4, 12]: 2.5 µg/mL (≈ 8.57 µM)
G. trabeum IC50 [4, 10]: 0.3 ppm

CCCCCCCCCC[N+](C)(C)[O-] [Decyl-DMAO, decyl dimethylamine oxide]
MIC [1, 13]: > 1000 µg/mL
MIC [2, 14]: 750 µg/mL (≈ 3720 µM)
Qa, concentration of amine oxide alone required to yield 100% retardation, T. versicolor ([2]; amine oxide alone): 750 ppm
Qa, concentration of amine oxide alone required to yield 100% retardation, P. placenta ([3]; amine oxide alone): 500 ppm
MIC [3, 15]: 500 µg/mL (≈ 2480 µM)
MIC [4, 16]: 250 µg/mL (≈ 1240 µM)
Qa, concentration of amine oxide alone required to yield 100% retardation, G. trabeum ([4]; amine oxide alone): 250 ppm

CCCCCCCCCCCC[N+](C)([O-])Cc1ccccc1 (stereo not shown) [Dodecyl-BMAO]
MIC (ppm of amine oxides) C. globosum [1, 7]: >1000 ppm
MIC (ppm of amine oxides) T. versicolor [2, 7]: >1000 ppm
MIC (ppm of amine oxides) P. placenta [3, 7]: >1000 ppm
MIC (ppm of amine oxides) G. trabeum [4, 7]: 1000 ppm

CCCCCCCCCCCC[N+](C)(C)[O-] [Dodecyl-DMAO, dodecyldimethylamine oxide]
MIC ([1]; read-out: MIC (ppm of amine oxides) C. globosum): > 1000 µg/mL
MIC [2, 14]: 250 µg/mL (≈ 1090 µM)
Qa, concentration of amine oxide alone required to yield 100% retardation, T. versicolor ([2]; amine oxide alone): 250 ppm
Qa, concentration of amine oxide alone required to yield 100% retardation, P. placenta ([3]; amine oxide alone): 250 ppm
MIC [3, 15]: 250 µg/mL (≈ 1090 µM)
MIC [4, 16]: 250 µg/mL (≈ 1090 µM)
Qa, concentration of amine oxide alone required to yield 100% retardation, G. trabeum ([4]; amine oxide alone): 250 ppm

CCCCCCCCCCCCCCCC[N+](C)(C)[O-] [Hexadecyl-DMAO, hexadecyl dimethylamine oxide]
MIC [1, 13]: > 1000 µg/mL
MIC [2, 14]: > 1000 µg/mL
Qa, concentration of amine oxide alone required to yield 100% retardation, T. versicolor ([2]; amine oxide alone): 1000 ppm
Qa, concentration of amine oxide alone required to yield 100% retardation, P. placenta ([3]; amine oxide alone): 1000 ppm
MIC [3, 15]: > 1000 µg/mL
MIC [4, 16]: > 1000 µg/mL
Qa, concentration of amine oxide alone required to yield 100% retardation, G. trabeum ([4]; amine oxide alone): 1000 ppm

CCCCCCCCCCCC[N+]1([O-])CCOCC1 [Lauryl morpholine N-oxide, lauryl morpholine N-oxide]
MIC (ppm of amine oxides) C. globosum [1, 7]: >1000 ppm
Qa, concentration of amine oxide alone required to yield 100% retardation, T. versicolor ([2]; amine oxide alone): 750 ppm
MIC (ppm of amine oxides) T. versicolor [2, 7]: 750 ppm
Qa, concentration of amine oxide alone required to yield 100% retardation, P. placenta ([3]; amine oxide alone): 500 ppm
MIC (ppm of amine oxides) P. placenta [3, 7]: 500 ppm
Qa, concentration of amine oxide alone required to yield 100% retardation, G. trabeum ([4]; amine oxide alone): 1000 ppm
MIC (ppm of amine oxides) G. trabeum [4, 7]: 1000 ppm

CCCCCCCCCCCCCCCCCC[N+](C)(C)[O-] [Octadecyl-DMAO, octadecyl dimethylamine oxide]
MIC [1, 13]: > 1000 µg/mL
MIC [2, 14]: > 1000 µg/mL
Qa, concentration of amine oxide alone required to yield 100% retardation, T. versicolor ([2]; amine oxide alone): 1000 ppm
Qa, concentration of amine oxide alone required to yield 100% retardation, P. placenta ([3]; amine oxide alone): 1000 ppm
MIC [3, 15]: > 1000 µg/mL
MIC [4, 16]: > 1000 µg/mL
Qa, concentration of amine oxide alone required to yield 100% retardation, G. trabeum ([4]; amine oxide alone): 1000 ppm

CCCCCCCC[N+](C)(C)[O-] [Octyldimethylamine oxide, octyl dimethylamine oxide]
MIC [1, 13]: > 1000 µg/mL
MIC [2, 14]: 750 µg/mL (≈ 4330 µM)
Qa, concentration of amine oxide alone required to yield 100% retardation, T. versicolor ([2]; amine oxide alone): 750 ppm
Qa, concentration of amine oxide alone required to yield 100% retardation, P. placenta ([3]; amine oxide alone): 1000 ppm
MIC [3, 15]: 1000 µg/mL (≈ 5770 µM)
MIC [4, 16]: 1000 µg/mL (≈ 5770 µM)
Qa, concentration of amine oxide alone required to yield 100% retardation, G. trabeum ([4]; amine oxide alone): 1000 ppm

CCCCCCCC/C=C\CCCCCCCC[N+](C)(C)[O-] [Oleyl-DMAO]
MIC (ppm of amine oxides) C. globosum [1, 7]: >1000 ppm
MIC (ppm of amine oxides) T. versicolor [2, 7]: >1000 ppm
MIC (ppm of amine oxides) P. placenta [3, 7]: >1000 ppm
MIC (ppm of amine oxides) G. trabeum [4, 7]: >1000 ppm

CCCC1COC(Cn2cncn2)(c2ccc(Cl)cc2Cl)O1 (stereo not shown) [Propiconazole, propiconazole]
MIC [1, 8]: > 50 µg/mL
C. globosum IC50 ([1]; azole alone): 11.7 ppm
MIC [2, 9]: 50 µg/mL (≈ 146 µM)
Qb, concentration of azole alone required to yield 100% retardation, T. versicolor ([2]; azole alone): 50 ppm
T. versicolor IC50 [2, 10]: 3 ppm
Qb, concentration of azole alone required to yield 100% retardation, P. placenta ([3]; azole alone): 50 ppm
P. placenta IC50 [3, 10]: 0.7 ppm
MIC [3, 11]: 50 µg/mL (≈ 146 µM)
MIC [4, 12]: > 50 µg/mL
Qb, concentration of azole alone required to yield 100% retardation, G. trabeum ([4]; azole alone): 50 ppm
G. trabeum IC50 [4, 10]: 0.9 ppm

CCCCCCCCCCCCCC[N+](C)(C)[O-] [Tetradecyl-DMAO, tetradecyl dimethylamine oxide]
MIC [1, 13]: > 1000 µg/mL
MIC [2, 14]: > 1000 µg/mL
Qa, concentration of amine oxide alone required to yield 100% retardation, T. versicolor ([2]; amine oxide alone): 1000 ppm
Qa, concentration of amine oxide alone required to yield 100% retardation, P. placenta ([3]; amine oxide alone): 1000 ppm
MIC [3, 15]: > 1000 µg/mL
MIC [4, 16]: > 1000 µg/mL
Qa, concentration of amine oxide alone required to yield 100% retardation, G. trabeum ([4]; amine oxide alone): 1000 ppm

CC(C)(C)C(=O)C(Oc1ccc(Cl)cc1)n1cncn1 (stereo not shown) [Triadimefon, triadimefon]
Solubility in Water^b ([5]; Material Safety Data Sheet): 64 ppm at 20 °C
Solubility in water^a ([5]; The Pesticide Manual, 11th Edition): 64 ppm/20 °C

branched alkyl (C10-C14) dimethylamine oxide [Branched alkyl (C10-C14) DMAO]
MIC C. globosum [1]: >1000 ppm
MIC (ppm of amine oxides) C. globosum [1, 7]: >1000 ppm
IC50 C. globosum [1]: 153 ppm
IC50 T. versicolor [2]: 84 ppm
MIC (ppm of amine oxides) T. versicolor [2]: 500 ppm
MIC T. versicolor [2]: 500 ppm
Qa, concentration of amine oxide alone required to yield 100% retardation, T. versicolor [2]: 500 ppm
IC50 P. placenta [3]: 89 ppm
MIC (ppm of amine oxides) P. placenta [3]: 500 ppm
MIC P. placenta [3]: 500 ppm
Qa, concentration of amine oxide alone required to yield 100% retardation, P. placenta [3]: 500 ppm
IC50 G. trabeum [4]: 44 ppm
MIC (ppm of amine oxides) G. trabeum [4]: 250 ppm
MIC G. trabeum [4]: 250 ppm
Qa, concentration of amine oxide alone required to yield 100% retardation, G. trabeum [4]: 250 ppm

coco-alkyl (C12-C16) dimethylamine oxide [Coco-DMAO]
MIC C. globosum [1]: >1000 ppm
MIC (ppm of amine oxides) C. globosum [1, 7]: >1000 ppm
IC50 C. globosum [1]: 47 ppm
MIC T. versicolor [2, 17]: 750 ppm
Qa, concentration of amine oxide alone required to yield 100% retardation, T. versicolor ([2]; amine oxide alone): 750 ppm
MIC (ppm of amine oxides) T. versicolor [2, 7]: 750 ppm
IC50 T. versicolor [2, 6]: 51 ppm
MIC P. placenta [3, 17]: 1000 ppm
MIC (ppm of amine oxides) P. placenta [3, 7]: 500-1000 ppm
IC50 P. placenta [3, 6]: 5 ppm
MIC G. trabeum [4, 17]: 500 ppm
Qa, concentration of amine oxide alone required to yield 100% retardation, G. trabeum ([4]; amine oxide alone): 500 ppm
MIC (ppm of amine oxides) G. trabeum [4, 7]: 500 ppm
IC50 G. trabeum [4, 6]: 9 ppm

coco-alkyl-di(hydroxyethyl)amine oxide [Coco-di(hydroxyethyl)-amine oxide]
MIC (ppm of amine oxides) C. globosum [1, 7]: >1000 ppm
MIC (ppm of amine oxides) T. versicolor [2, 7]: 500 ppm
MIC (ppm of amine oxides) P. placenta [3, 7]: 500 ppm
MIC (ppm of amine oxides) G. trabeum [4, 7]: 500 ppm

tallow-alkyl-di(hydroxyethyl)amine oxide [Tallow-di(hydroxyethyl)-amine oxide]
MIC (ppm of amine oxides) C. globosum [1, 7]: >1000 ppm
MIC (ppm of amine oxides) T. versicolor [2, 7]: >1000 ppm
MIC (ppm of amine oxides) P. placenta [3, 7]: >1000 ppm
MIC (ppm of amine oxides) G. trabeum [4, 7]: >1000 ppm
